# Experimental data reported in ChEMBL document CHEMBL3046894, “Synthesis and Herbicidal Activity of Pyrimidinyl Salicylic and Thiosalicylic Acids” (J Pestic Sci, 1996).
# Calls of active or inactive are those of the source. The calls are words filed in the database; no cut-off is given here.
# How the values were obtained:
# [1] = test system: Echinochloa crus-galli; test: Post-emergence herbicidal activity against Echinochloa crus-galli (barnyard grass) assessed as growth inhibition at 25 g a.i/10 a applied 11 days after germination as foliar spray; assay type: functional, organism-based
# [2] = test system: Gossypium hirsutum; test: (§1) Pre-emergence phytotoxicity against Gossypium hirsutum (cotton) assessed as mortality at 6.3 g a.i/10 a; assay type: organism-based; conditions: in vivo, other
# [3] = test system: Cyperus iria; test: Pre-emergence herbicidal activity against Cyperus iria assessed as growth inhibition at 25 g a.i/10 a; assay type: functional, organism-based
# [4] = test system: Abutilon theophrasti; test: Pre-emergence herbicidal activity against Abutilon theophrasti (velvetleaf) assessed as mortality at 1.6 g a.i/10 a; assay type: functional
# [5] = test system: Xanthium strumarium; test: Pre-emergence herbicidal activity against Xanthium strumarium (cocklebur) assessed as mortality at 1.6 g a.i/10 a; assay type: functional
# [6] = test system: Abutilon theophrasti; test: Post-emergence herbicidal activity against Abutilon theophrasti (velvetleaf) assessed as mortality at 1.6 g a.i/10 a applied 11 days after germination as foliar spray; assay type: functional; conditions: 264 h
# [7] = test system: Amaranthus retroflexus; test: Pre-emergence herbicidal activity against Amaranthus retroflexus assessed as growth inhibition at 25 g a.i/10 a; assay type: functional, organism-based
# [8] = test system: Ipomoea lacunosa; test: Pre-emergence herbicidal activity against Ipomoea lacunosa assessed as mortality at 1.6 g a.i/10 a; assay type: functional
# [9] = Pre-emergence phytotoxicity against Zea mays (maize) assessed as mortality at 1.6 g a.i/10 a; assay type: organism-based; conditions: in vivo, 1.6 g a.i/10 a
# [10] = test system: Persicaria nodosa; test: Pre-emergence herbicidal activity against Persicaria nodosa assessed as growth inhibition at 25 g a.i/10 a; assay type: functional, organism-based
# [11] = test system: Chenopodium album; test: Post-emergence herbicidal activity against Chenopodium album assessed as growth inhibition at 25 g a.i/10 a applied 11 days after germination as foliar spray; assay type: functional, organism-based
# [12] = (§2) Post-emergence phytotoxicity against Zea mays (maize) assessed as mortality at 1.6 g a.i/10 a applied 11 days after germination as foliar spray; assay type: organism-based; conditions: in vivo, 1.6 g a.i/10 a
# [13] = test system: Ipomoea lacunosa; test: Post-emergence herbicidal activity against Ipomoea lacunosa assessed as mortality at 6.3 g a.i/10 a applied 11 days after germination as foliar spray; assay type: functional; conditions: 264 h
# [14] = test system: Ipomoea lacunosa; test: Post-emergence herbicidal activity against Ipomoea lacunosa assessed as mortality at 1.6 g a.i/10 a applied 11 days after germination as foliar spray; assay type: functional; conditions: 264 h
# [15] = test system: Abutilon theophrasti; test: Pre-emergence herbicidal activity against Abutilon theophrasti (velvetleaf) assessed as mortality at 6.3 g a.i/10 a; assay type: functional
# [16] = test system: Digitaria sanguinalis; test: Post-emergence herbicidal activity against Digitaria sanguinalis (hairy crabgrass) assessed as growth inhibition at 25 g a.i/10 a applied 11 days after germination as foliar spray; assay type: functional, organism-based
# [17] = (§3) Post-emergence phytotoxicity against Glycine max (soybean) assessed as mortality at 1.6 g a.i/10 a applied 11 days after germination as foliar spray; assay type: organism-based; conditions: in vivo, 1.6 g a.i/10 a
# [18] = test system: Gossypium hirsutum; test: Pre-emergence phytotoxicity against Gossypium hirsutum (cotton) assessed as mortality at 1.6 g a.i/10 a; assay type: organism-based; conditions: in vivo, other
# [19] = test system: Echinochloa crus-galli; test: Post-emergence herbicidal activity against Echinochloa crus-galli (barnyard grass) assessed as mortality at 6.3 g a.i/10 a applied 11 days after germination as foliar spray; assay type: functional; conditions: 264 h
# [20] = test system: Amaranthus retroflexus; test: Post-emergence herbicidal activity against Amaranthus retroflexus assessed as growth inhibition at 25 g a.i/10 a applied 11 days after germination as foliar spray; assay type: functional, organism-based
# [21] = test system: Xanthium strumarium; test: Post-emergence herbicidal activity against Xanthium strumarium (cocklebur) assessed as mortality at 6.3 g a.i/10 a applied 11 days after germination as foliar spray; assay type: functional; conditions: 264 h
# [22] = test system: Glycine max; test: (§4) Pre-emergence phytotoxicity against Glycine max (soybean) assessed as mortality at 1.6 g a.i/10 a; assay type: organism-based; conditions: in vivo, other
# [23] = test system: Abutilon theophrasti; test: Post-emergence herbicidal activity against Abutilon theophrasti (velvetleaf) assessed as mortality at 6.3 g a.i/10 a applied 11 days after germination as foliar spray; assay type: functional; conditions: 264 h
# [24] = (§5) Pre-emergence phytotoxicity against Glycine max (soybean) assessed as mortality at 6.3 g a.i/10 a; assay type: organism-based; conditions: in vivo, 6.3 g a.i/10 a
# [25] = test system: Persicaria nodosa; test: Post-emergence herbicidal activity against Persicaria nodosa assessed as growth inhibition at 25 g a.i/10 a applied 11 days after germination as foliar spray; assay type: functional, organism-based
# [26] = test system: Chenopodium album; test: Pre-emergence herbicidal activity against Chenopodium album assessed as growth inhibition at 25 g a.i/10 a; assay type: functional, organism-based
# [27] = test system: Gossypium hirsutum; test: (§6) Post-emergence phytotoxicity against Gossypium hirsutum (cotton) assessed as mortality at 6.3 g a.i/10 a applied 11 days after germination as foliar spray; assay type: organism-based; conditions: in vivo, other, 264 h
# [28] = test system: Cyperus iria; test: Post-emergence herbicidal activity against Cyperus iria assessed as growth inhibition at 25 g a.i/10 a applied 11 days after germination as foliar spray; assay type: functional, organism-based
# [29] = test system: Gossypium hirsutum; test: (§7) Post-emergence phytotoxicity against Gossypium hirsutum (cotton) assessed as mortality at 1.6 g a.i/10 a applied 11 days after germination as foliar spray; assay type: organism-based; conditions: in vivo, other, 264 h
# [30] = test system: Digitaria sanguinalis; test: Pre-emergence herbicidal activity against Digitaria sanguinalis (hairy crabgrass) assessed as growth inhibition at 25 g a.i/10 a; assay type: functional, organism-based
# [31] = test system: Echinochloa crus-galli; test: Pre-emergence herbicidal activity against Echinochloa crus-galli (barnyard grass) assessed as mortality at 6.3 g a.i/10 a; assay type: functional
# [32] = test system: Echinochloa crus-galli; test: Pre-emergence herbicidal activity against Echinochloa crus-galli (barnyard grass) assessed as growth inhibition at 25 g a.i/10 a; assay type: functional, organism-based
# [33] = as §1; assay type: organism-based; conditions: in vivo, 6.3 g a.i/10 a, read-out: Activity
# [34] = test system: Xanthium strumarium; test: Pre-emergence herbicidal activity against Xanthium strumarium (cocklebur) assessed as mortality at 6.3 g a.i/10 a; assay type: functional
# [35] = test system: Ipomoea lacunosa; test: Pre-emergence herbicidal activity against Ipomoea lacunosa assessed as mortality at 6.3 g a.i/10 a; assay type: functional
# [36] = test system: Echinochloa crus-galli; test: Post-emergence herbicidal activity against Echinochloa crus-galli (barnyard grass) assessed as mortality at 1.6 g a.i/10 a applied 11 days after germination as foliar spray; assay type: functional; conditions: 264 h
# [37] = test system: Zea mays; test: as §2; assay type: organism-based; conditions: in vivo, other, 264 h
# [38] = test system: Glycine max; test: as §3; assay type: organism-based; conditions: in vivo, other, 264 h
# [39] = as §4; assay type: organism-based; conditions: in vivo, 1.6 g a.i/10 a, read-out: Activity
# [40] = test system: Zea mays; test: Pre-emergence phytotoxicity against Zea mays (maize) assessed as mortality at 6.3 g a.i/10 a; assay type: organism-based; conditions: in vivo, other
# [41] = as §6; assay type: organism-based; conditions: in vivo, 6.3 g a.i/10 a
# [42] = test system: Echinochloa crus-galli; test: Pre-emergence herbicidal activity against Echinochloa crus-galli (barnyard grass) assessed as mortality at 1.6 g a.i/10 a; assay type: functional
# [43] = test system: Glycine max; test: Post-emergence phytotoxicity against Glycine max (soybean) assessed as mortality at 6.3 g a.i/10 a applied 11 days after germination as foliar spray; assay type: organism-based; conditions: in vivo, other, 264 h
# [44] = test system: Zea mays; test: Post-emergence phytotoxicity against Zea mays (maize) assessed as mortality at 6.3 g a.i/10 a applied 11 days after germination as foliar spray; assay type: organism-based; conditions: in vivo, other, 264 h
# [45] = test system: Glycine max; test: as §5; assay type: organism-based; conditions: in vivo, other
# [46] = as §7; assay type: organism-based; conditions: in vivo, 1.6 g a.i/10 a
# [47] = Abutilon theophrasti, pre-emergence
smiles,measurement,setting,value
COc1cc(OC)nc(Oc2cccc(I)c2C(=O)O)n1,growth inhibition (GI),[1],Active
same,Activity,[2],Non-toxic
same,growth inhibition (GI),[3],Active
same,mortality at 16 g/ha,[4]; [47],> 90%
same,mortality at 16 g/ha,"[5]; Xanthium strumarium, pre-emergence",< 5%
same,mortality at 16 g/ha,[6],> 90%
same,growth inhibition (GI),[7],Active
same,mortality at 16 g/ha,"[8]; Ipomoea lacunosa, pre-emergence",< 5%
same,mortality,[9]; read-out: mortality,> 90%
same,growth inhibition (GI),[10],Active
same,growth inhibition (GI),[11],Active
same,mortality at 264 h,[12],> 90%
same,mortality at 63 g/ha,[13],> 90%
same,mortality at 16 g/ha,[14],> 90%
same,mortality at 63 g/ha,[15]; [47],> 90%
same,growth inhibition (GI),[16],Active
same,mortality at 264 h,[17],> 90%
same,Activity,[18],Non-toxic
same,mortality at 63 g/ha,[19],> 90%
same,growth inhibition (GI),[20],Active
same,mortality at 63 g/ha,[21],> 90%
same,Activity,[22],Toxic
same,mortality at 63 g/ha,[23],> 90%
same,mortality,[24]; read-out: mortality,> 90%
same,growth inhibition (GI),[25],Active
same,growth inhibition (GI),[26],Active
same,Activity,[27],Toxic
same,growth inhibition (GI),[28],Active
same,Activity,[29],Toxic
same,growth inhibition (GI),[30],Active
same,mortality at 63 g/ha,"[31]; Echinochloa crus-galli, pre-emergence",> 90%
same,growth inhibition (GI),[32],Active
COc1cc(OC)nc(Sc2cccc(OC(C)C)c2C(=O)O)n1,mortality,[33],< 50%
same,Activity,[34],<50%
same,Activity,[4],<50%
same,Activity,[35],<50%
same,Activity,[5],<50%
same,mortality at 16 g/ha,[6],> 90%
same,Activity,[8],<50%
same,mortality,[9]; read-out: Activity,< 50%
same,mortality at 16 g/ha,[36],< 5%
same,Activity,[37],Toxic
same,mortality at 63 g/ha,[13],> 90%
same,Activity,[15],<50%
same,Activity,[38],Toxic
same,Activity,[18],< 50%
same,mortality at 63 g/ha,[19],< 5%
same,mortality,[39],< 50%
same,mortality at 63 g/ha,[23],> 90%
same,mortality,[24]; read-out: Activity,< 50%
same,Activity,[40],< 50%
same,mortality at 264 h,[41],> 90%
same,Activity,[29],Non-toxic
same,Activity,[42],<50%
same,Activity,[43],Toxic
same,Activity,[31],<50%
COc1cc(OC)nc(Sc2cccc(OC)c2C(=O)O)n1,Activity,[2],Non-toxic
same,Activity,[44],Toxic
same,mortality,[9]; read-out: Activity,> 90%
same,Activity,[37],Toxic
same,Activity,[38],Toxic
same,Activity,[18],Non-toxic
same,Activity,[22],Toxic
same,mortality at 63 g/ha,[23],> 90%
same,Activity,[45],Toxic
same,Activity,[40],> 90%
same,Activity,[27],Non-toxic
same,mortality at 264 h,[46],< 5%
same,Activity,[42],>90%
same,Activity,[43],Toxic
same,Activity,[31],>90%
